Measurements reported in patent US20120053115A1, “Lantibiotic Carboxyamide Derivatives With Enhanced Antibacterial Activity” (Sentinella Pharmaceuticals, Inc., priority 2008, published 2012).

Key:
[1] = test system: Enterococcus faecium VanS (code 568); settings: E. faecium VanS code 568; 0.02% albumine bovine serum; read after 24 h
Method: (§1) MICs were performed using the broth microdilution methodology following the NCCLS procedure (NCCLS Document M7-A4 Vol. 17 No. 2 January 1997) in presence of 0.02% albumine bovine serum with inocula of approximately 5×10^5 cfu/mL. The media employed included cation-adjusted Mueller-Hinton (MH) broth (Difco Laboratories, Detroit, Mich., USA) supplemented or not with 30% (v/v) bovine serum. Tests were read after 24 h incubation at 25-37° C.

[2] = test system: Escherichia coli (code 47); settings: 0.02% albumine bovine serum, read after 24 h
Method: as §1

[3] = test system: S. haemolyticus Met-R (code 1729); settings: 0.02% albumine bovine serum, read after 24 h
Method: as §1

[4] = test system: S. haemolyticus Met-S (code 1730); settings: 0.02% albumine bovine serum, read after 24 h
Method: as §1

[5] = test system: Staphylococcus aureus VISA (code 3798); settings: S. aureus VISA code 3798; 0.02% albumine bovine serum; read after 24 h
Method: as §1

[6] = test system: E. faecalisVanS (code 559); settings: E. faecalis VanS code 559; 0.02% albumine bovine serum; read after 24 h
Method: as §1

[7] = test system: E. faecalisVanA (code 560); settings: E. faecalis VanA code 560; 0.02% albumine bovine serum; read after 24 h
Method: as §1

[8] = test system: C. albicans ATCC 90028 (code 145); settings: 0.02% albumine bovine serum, read after 24 h
Method: as §1

[9] = test system: E. faecium VanA (code 569); settings: 0.02% albumine bovine serum, read after 24 h
Method: as §1

[10] = test system: Staphylococcus aureus VISA Met-R (code 3797); settings: S. aureus VISA Met-R code 3797; 0.02% albumine bovine serum; read after 24 h
Method: as §1

[11] = test system: S. epidermidis ATCC12228 (code 147); settings: 0.02% albumine bovine serum, read after 24 h
Method: as §1

## C=C1NC(=O)[C@H](C(C)C)NC(=O)[C@H](NC(=O)/C(=C/C)NC(=O)[C@@H](N)[C@@H](C)CC)CSC[C@@H](C(=O)N[C@H]2C(=O)N3CCC[C@H]3C(=O)NCC(=O)N[C@H](C(=O)N[C@H](C(=O)N[C@@H]3CSC[C@@H]4NC(=O)CNC(=O)[C@@H](CSC[C@@H]5NC(=O)[C@H](Cc6c[nH]cn6)NC(=O)[C@@H](CSC[C@@H](C(=O)NC6CCCCC6)NC5=O)NC4=O)NC(=O)CNC(=O)CNC(=O)CNC(=O)[C@H](CCC(=O)NC4CCCCC4)NC3=O)[C@@H](C)O)CS[C@H]2C)NC(=O)[C@H](Cc2c[nH]c3ccccc23)NC1=O [Compound 1]
[1]
  Minimal Inhibitory Concentrations: 2 µg/mL
[2]
  Minimal Inhibitory Concentrations: >128 µg/mL
[3]
  Minimal Inhibitory Concentrations: 32 µg/mL
[4]
  Minimal Inhibitory Concentrations: 4 µg/mL
[5]
  Minimal Inhibitory Concentrations: 2 µg/mL
[6]
  Minimal Inhibitory Concentrations: 1 µg/mL
[7]
  Minimal Inhibitory Concentrations: 1 µg/mL
[8]
  Minimal Inhibitory Concentrations: 64 µg/mL
[9]
  Minimal Inhibitory Concentrations: 2 µg/mL
[10]
  Minimal Inhibitory Concentrations: 4 µg/mL
[11]
  Minimal Inhibitory Concentrations: 2 µg/mL

## C=C1NC(=O)[C@H](C(C)C)NC(=O)[C@H](NC(=O)/C(=C/C)NC(=O)[C@@H](N)[C@@H](C)CC)CSC[C@@H](C(=O)N[C@H]2C(=O)N3CCC[C@H]3C(=O)NCC(=O)N[C@H](C(=O)N[C@H](C(=O)N[C@@H]3CSC[C@@H]4NC(=O)CNC(=O)[C@@H](CSC[C@@H]5NC(=O)[C@H](Cc6c[nH]cn6)NC(=O)[C@@H](CSC[C@@H](C(=O)NCc6cccc(OC)c6)NC5=O)NC4=O)NC(=O)CNC(=O)CNC(=O)CNC(=O)[C@H](CCC(=O)NCc4cccc(OC)c4)NC3=O)[C@@H](C)O)CS[C@H]2C)NC(=O)[C@H](Cc2c[nH]c3ccccc23)NC1=O [Compound 6]
[1]
  Minimal Inhibitory Concentrations: 2 µg/mL
[2]
  Minimal Inhibitory Concentrations: >128 µg/mL
[3]
  Minimal Inhibitory Concentrations: >128 µg/mL
[4]
  Minimal Inhibitory Concentrations: 2 µg/mL
[5]
  Minimal Inhibitory Concentrations: 1 µg/mL
[6]
  Minimal Inhibitory Concentrations: 2 µg/mL
[7]
  Minimal Inhibitory Concentrations: 2 µg/mL
[8]
  Minimal Inhibitory Concentrations: 32 µg/mL
[9]
  Minimal Inhibitory Concentrations: 1 µg/mL
[10]
  Minimal Inhibitory Concentrations: 2 µg/mL
[11]
  Minimal Inhibitory Concentrations: 2 µg/mL

## C=CCNC(=O)CC[C@@H]1NC(=O)[C@H](NC(=O)[C@@H](NC(=O)[C@@H]2CS[C@@H](C)[C@@H](NC(=O)[C@@H]3CSC[C@@H](NC(=O)/C(=C/C)NC(=O)[C@@H](N)[C@@H](C)CC)C(=O)N[C@@H](C(C)C)C(=O)NC(=C)C(=O)N[C@@H](Cc4c[nH]c5ccccc45)C(=O)N3)C(=O)N3CCC[C@H]3C(=O)NCC(=O)N2)[C@@H](C)O)CSC[C@@H]2NC(=O)CNC(=O)[C@@H](CSC[C@@H]3NC(=O)[C@H](Cc4c[nH]cn4)NC(=O)[C@@H](CSC[C@@H](C(=O)NCC=C)NC3=O)NC2=O)NC(=O)CNC(=O)CNC(=O)CNC1=O [Compound 5]
[1]
  Minimal Inhibitory Concentrations: 8 µg/mL
[2]
  Minimal Inhibitory Concentrations: >128 µg/mL
[3]
  Minimal Inhibitory Concentrations: 32 µg/mL
[4]
  Minimal Inhibitory Concentrations: 4 µg/mL
[5]
  Minimal Inhibitory Concentrations: 2 µg/mL
[6]
  Minimal Inhibitory Concentrations: 8 µg/mL
[7]
  Minimal Inhibitory Concentrations: 8 µg/mL
[8]
  Minimal Inhibitory Concentrations: 32 µg/mL
[9]
  Minimal Inhibitory Concentrations: 8 µg/mL
[10]
  Minimal Inhibitory Concentrations: 8 µg/mL
[11]
  Minimal Inhibitory Concentrations: 4 µg/mL
